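Interpolation was linear, between the two tested concentrations surrounding the appropriate level; five concentrations were tested over 48 hours in 96-well plates. Here, GI50 denotes the concentration required for 50% inhibition of growth.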 Active and inactive are the calls of the source. Rule as the data show it: active = GI50 up to about 1.1 µM and inactive = higher.
Tests used:
Assay in all cases: growth of human tumour cells (NCI), 48 h
[1] = test system: SW-620
[2] = test system: UACC-257
[3] = test system: HCT-116
[4] = test system: PC-3
[5] = test system: TK-10
[6] = test system: HOP-62
[7] = test system: OVCAR-3
[8] = test system: NCI-H23
[9] = test system: 786-0
[10] = test system: SNB-75
[11] = test system: HOP-92
[12] = test system: ACHN
[13] = test system: IGROV-1
[14] = test system: EKVX
[15] = test system: M14
[16] = test system: SK-MEL-5
[17] = test system: Hs-578T
[18] = test system: MDA-MB-435
[19] = test system: T47D

SMILES | GI50 [1] | GI50 [2] | GI50 [3] | GI50 [4] | GI50 [5] | GI50 [6] | GI50 [7] | GI50 [8] | GI50 [9] | GI50 [10] | GI50 [11] | GI50 [12] | GI50 [13] | GI50 [14] | GI50 [15] | GI50 [16] | GI50 [17] | GI50 [18] | GI50 [19]
CCOC(=O)CCC(NC(=O)c1ccc(/N=C/c2nc3cc(C(F)(F)F)ccc3nc2-c2ccccc2)cc1)C(=O)OCC (stereo not given) | > 50 µM (inactive) | > 50 µM (inactive) | 6.56 µM (inactive) | > 50 µM (inactive) | 12.1 µM (inactive) | 12.9 µM (inactive) | 46.6 µM (inactive) | 7.82 µM (inactive) | 7.38 µM (inactive) | 5.04 µM (inactive) | 4.88 µM (inactive) | 11.1 µM (inactive) | 15.3 µM (inactive) | 28.9 µM (inactive) | 23.9 µM (inactive) | 25.1 µM (inactive) |  |  | 
Cc1cc(O)nc(NN2C(Cl)C(=O)C2c2ccccc2O)n1 (stereo not given) | 3.27 µM (inactive) | 3.4 µM (inactive) | 2.14 µM (inactive) | 1.32 µM (inactive) | 19.4 µM (inactive) | 1.76 µM (inactive) | 0.33 µM (active) | 5.45 µM (inactive) | 2.53 µM (inactive) | 2.54 µM (inactive) | 5.26 µM (inactive) | 1.44 µM (inactive) | 3.75 µM (inactive) | 3.27 µM (inactive) | 3.15 µM (inactive) | 2.66 µM (inactive) | 26.8 µM (inactive) | 5.68 µM (inactive) | 3.99 µM (inactive)
COc1ccc(Nc2nc3ccccc3nc2-c2cccs2)cc1OC | > 10 µM (inactive) | > 10 µM (inactive) | > 10 µM (inactive) | 9.35 µM (inactive) | > 10 µM (inactive) | > 10 µM (inactive) | > 10 µM (inactive) | > 10 µM (inactive) | > 10 µM (inactive) | > 10 µM (inactive) | > 10 µM (inactive) | > 10 µM (inactive) | > 10 µM (inactive) | > 10 µM (inactive) | > 10 µM (inactive) | > 10 µM (inactive) | > 10 µM (inactive) | > 10 µM (inactive) | > 10 µM (inactive)
C[C@]12CCC(O)CC1=CC[C@@H]1[C@@H]2CC[C@]2(C)C(=O)[C@H](n3ccnc3)C[C@@H]12 (stereo not given in full) | > 100 µM (inactive) | 40.4 µM (inactive) | 54.5 µM (inactive) | 28.6 µM (inactive) | > 100 µM (inactive) |  | > 100 µM (inactive) | 33.8 µM (inactive) | > 100 µM (inactive) | > 100 µM (inactive) | > 100 µM (inactive) | > 100 µM (inactive) | > 100 µM (inactive) | > 100 µM (inactive) | 77.6 µM (inactive) | 16.2 µM (inactive) | > 100 µM (inactive) | 43.1 µM (inactive) | 
N#Cc1nc(C(F)(F)F)oc1N | > 100 µM (inactive) | > 100 µM (inactive) | > 100 µM (inactive) | > 100 µM (inactive) | > 100 µM (inactive) | > 100 µM (inactive) | > 100 µM (inactive) | > 100 µM (inactive) | > 100 µM (inactive) | > 100 µM (inactive) | > 100 µM (inactive) | > 100 µM (inactive) | > 100 µM (inactive) | > 100 µM (inactive) | > 100 µM (inactive) | > 100 µM (inactive) | > 100 µM (inactive) | > 100 µM (inactive) | > 100 µM (inactive)
CC(=O)NC1=C(NCCC(C)C)C(=O)c2ccccc2C1=O | > 50 µM (inactive) | > 50 µM (inactive) | > 50 µM (inactive) |  | > 50 µM (inactive) | > 50 µM (inactive) | > 50 µM (inactive) | > 50 µM (inactive) | > 50 µM (inactive) | > 50 µM (inactive) | > 50 µM (inactive) | 0.0301 µM (active) | > 50 µM (inactive) | > 50 µM (inactive) | > 50 µM (inactive) | > 50 µM (inactive) |  |  | 
Cc1cccc(C)c1NC(=O)CCC(=O)NNc1nnc(C)n1N | > 100 µM (inactive) | > 100 µM (inactive) | > 100 µM (inactive) |  | > 100 µM (inactive) | > 100 µM (inactive) | > 100 µM (inactive) | > 100 µM (inactive) | > 100 µM (inactive) | > 100 µM (inactive) | > 100 µM (inactive) | > 100 µM (inactive) | > 100 µM (inactive) | > 100 µM (inactive) | > 100 µM (inactive) | > 100 µM (inactive) |  |  | 
NC(=O)c1ccc(Cl)c([N+](=O)[O-])c1 | > 100 µM (inactive) | > 100 µM (inactive) | > 100 µM (inactive) |  | > 100 µM (inactive) | > 100 µM (inactive) | > 100 µM (inactive) | > 100 µM (inactive) | > 100 µM (inactive) | > 100 µM (inactive) | > 100 µM (inactive) | > 100 µM (inactive) | > 100 µM (inactive) | > 100 µM (inactive) | > 100 µM (inactive) | > 100 µM (inactive) |  |  | 

— ChEMBL document CHEMBL1201862, “PubChem BioAssay data set” (2004)
